From patent US20080015146A1, “Dpp-IV Inhibitors” (SANTHERA PHARMACEUTICALS (DEUTSCHLAND) AG, priority 2004, published 2008)
Counter-ions that a name gives are not always drawn.

Target: T1, DPP-IV (Homo sapiens, UniProt P27487)
T1 construct: Soluble human DPP-IV lacking the transmembrane anchor (Gly31-Pro766); Pre-Pro-alpha-mating factor secretion leader (N, cleaved yes); made in house
Test: Continuous fluorimetric assay of inhibition of DPP-IV peptidase activity (cleavage of Gly-Pro-AMC)
Format: biochemical
Conditions: substrate Gly-Pro-AMC 16 μM, pH 7.4, 25° C., 1% DMSO; assays carried out with human and porcine DPP-IV (comparable activities)
Description: Inhibition of DPP-IV peptidase activity was monitored with a continuous fluorimetric assay. This assay is based on the cleavage of the substrate Gly-Pro-AMC (Bachem) by DPP-IV, releasing free AMC. The assay is carried out in 96-well microtiterplates. In a total volume of 100 μl compounds are preincubated with […] DPP-IV employing a buffer containing 10 mM Hepes, 150 mM NaCl, 0.005% Tween 20 (pH 7.4). […] The final concentration of DMSO is 1%. The inhibitory potential of the compounds were determined.
Soluble human DPP-IV lacking the transmembrane anchor (Gly31-Pro766) was expressed in a recombinant YEAST-strain as Pre-Pro-alpha-mating fusion. The secreted product (rhuDPP-IV-Gly31-Pro766) was purified from fermentation broth (>90% purity).

T1 sequence (P27487 31-766): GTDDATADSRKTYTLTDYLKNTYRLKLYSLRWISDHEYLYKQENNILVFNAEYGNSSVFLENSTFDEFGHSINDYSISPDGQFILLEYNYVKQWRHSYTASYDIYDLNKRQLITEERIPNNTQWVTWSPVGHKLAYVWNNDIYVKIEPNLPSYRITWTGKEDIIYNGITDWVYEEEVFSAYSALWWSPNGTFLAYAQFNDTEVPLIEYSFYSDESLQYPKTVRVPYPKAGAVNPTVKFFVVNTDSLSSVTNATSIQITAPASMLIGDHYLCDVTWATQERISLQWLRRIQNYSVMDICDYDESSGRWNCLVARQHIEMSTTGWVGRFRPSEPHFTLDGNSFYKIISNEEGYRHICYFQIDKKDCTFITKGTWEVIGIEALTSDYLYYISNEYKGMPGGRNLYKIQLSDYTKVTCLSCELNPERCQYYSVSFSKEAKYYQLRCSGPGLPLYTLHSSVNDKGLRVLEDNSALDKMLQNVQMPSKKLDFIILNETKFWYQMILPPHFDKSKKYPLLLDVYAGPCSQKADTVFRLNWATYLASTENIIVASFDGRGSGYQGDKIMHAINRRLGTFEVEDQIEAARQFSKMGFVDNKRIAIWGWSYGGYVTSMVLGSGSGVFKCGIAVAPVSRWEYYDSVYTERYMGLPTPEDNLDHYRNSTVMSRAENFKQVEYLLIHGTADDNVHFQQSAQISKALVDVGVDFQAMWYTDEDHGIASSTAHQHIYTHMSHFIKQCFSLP

| SMILES | IC50 |
| --- | --- |
| N[C@@H](CC(=O)N1CCC[C@H]1c1nc(-c2ccccc2)no1)Cc1ccccc1F [Example 1, (R)-3-Amino-4-(2-fluoro-phenyl)-1-[(S)-2-(3-phenyl-[1,2,4]oxadiazol-5-yl)-pyrrolidin-1-yl]-butan-1-one hydrochloride] | < 100 nM |
| N[C@@H](CC(=O)N1CCC[C@H]1c1nc(-c2cccc(Cl)c2)no1)Cc1ccccc1F [Example 2, (R)-3-Amino-1-{(S)-2-[3-(3-chloro-phenyl)[1,2,4]oxadiazol-5-yl)-pyrrolidin-1-yl}-4-(2-fluoro-phenyl)-butan-1-one hydrochloride] | < 100 nM |
| N[C@@H](CC(=O)N1CCC[C@H]1c1nc(-c2cccc(F)c2)no1)Cc1ccccc1F [Example 3, (R)-3-Amino-1-{(S)-2-[3-(3-fluoro-phenyl) [1,2,4]oxadiazol-5-yl)-pyrrolidin-1-yl}-4-(2-fluoro-phenyl)-butan-1-one hydrochloride] | < 100 nM |
| CS(=O)(=O)c1ccc(-c2noc([C@@H]3CCCN3C(=O)C[C@H](N)Cc3ccccc3F)n2)cc1 [Example 4, (R)-3-Amino-4-(2-fluoro-phenyl)-1-{(S)-2-[3-(4-methanesulphonyl-phenyl)[1,2,4]oxadiazol-5-yl]-pyrrolidin-1-yl}-butan-1-one hydrochloride] | < 100 nM |
| N[C@@H](CC(=O)N1CCC[C@H]1c1nc(-c2ccccn2)no1)Cc1ccccc1F [Example 5, (R)-3-Amino-4-(2-fluoro-phenyl)-1-[(S)-2-(3-pyridin-2-yl-[1,2,4]oxadiazol-5-yl)-pyrrolidin-1-yl]-butan-1-one] | < 100 nM |
| N[C@@H](CC(=O)N1CCC[C@H]1c1nc(-c2cccc(F)c2)no1)Cc1cccc(Cl)c1 [Example 6, (R)-3-Amino-4-(3-chloro-phenyl)-1-{(S)-2-[3-(3-fluoro-phenyl)-[1,2,4]oxadiazol-5-yl]-pyrrolidin-1-yl}-butan-1-one trifluoroacetic acid salt] | < 100 nM |
| N[C@@H](CC(=O)N1CCC[C@H]1c1nc(-c2cc(F)cc(F)c2)no1)Cc1ccccc1F [Example 7, (R)-3-Amino-1-{(S)-2-[3-(3,5-difluoro-phenyl)-[1,2,4]oxadiazol-5-yl)-pyrrolidin-1-yl}-4-(2-fluoro-phenyl)-butan-1-one trifluoracetic acid salt] | < 100 nM |
| N[C@@H](CC(=O)N1CCC[C@H]1c1nc(-c2ccc(F)cc2F)no1)Cc1ccccc1F [Example 8, (R)-3-Amino-1-{(S)-2-[3-(2,4-difluoro-phenyl)-[1,2,4]oxadiazol-5-yl)-pyrrolidin-1-yl}-4-(2-fluoro-phenyl)-butan-1-one trifluoracetic acid salt] | < 100 nM |
| CS(=O)(=O)c1cccc(-c2noc([C@@H]3CCCN3C(=O)C[C@H](N)Cc3ccccc3F)n2)c1 [Example 9, (R)-3-Amino-1-{(S)-2-[3-(3-methanesulphonyl-phenyl)-[1,2,4]oxadiazol-5-yl)-pyrrolidin-1-yl}-4-(2-fluoro-phenyl)-butan-1-one trifluoracetic acid salt] | < 100 nM |
| CS(=O)(=O)Nc1ccc(-c2noc([C@@H]3CCCN3C(=O)C[C@H](N)Cc3ccccc3F)n2)cc1 [Example 10, N-[4-(5-{(S)-1-[(R)-3-Amino-4-(2-fluoro-phenyl)-butyryl]-pyrrolidin-2-yl}-[1,2,4]oxadiazol-3-yl)-phenyl]-methanesulphonamide trifluoroacetic acid salt] | < 100 nM |
| N[C@@H](CC(=O)N1CCC[C@H]1c1nc(C2CC2)no1)Cc1ccccc1F [Example 11, (R)-3-Amino-1-[(S)-2-(3-cyclopropyl-[1,2,4]oxadiazol-5-yl)-pyrrolidin-1-yl]-4-(2-fluorophenyl)-butan-1-one trifluoracetic acid salt] | < 100 nM |
| N[C@@H](CC(=O)N1CCC[C@H]1c1nc(C2CCC2)no1)Cc1cc(F)c(F)cc1F [Example 15, (R)-3-Amino-1-[(S)-2-(3-cyclobutyl-[1,2,4]oxadiazol-5-yl)-pyrrolidin-1-yl]-4-(2,4,5-trifluoro-phenyl)-butan-1-one formate salt] | < 100 nM |
| COCC(C)(C)c1noc([C@@H]2CCCN2C(=O)C[C@H](N)Cc2cc(F)c(F)cc2F)n1 [Example 24, (R)-3-Amino-1-{(S)-2-[3-(2-methoxy-1,1-dimethyl-ethyl)-[1,2,4]oxadiazol-5-yl]-pyrrolidin-1-yl}-4-(2,4,5-trifluoro-phenyl)-butan-1-one formate salt] | < 100 nM |
| COCC1(c2noc([C@@H]3CCCN3C(=O)C[C@H](N)Cc3cc(F)c(F)cc3F)n2)CC1 [Example 25, (R)-3-Amino-1-{(S)-2-[3-(1-methoxymethyl-cyclopropyl)-[1,2,4]oxadiazol-5-yl]-pyrrolidin-1-yl}-4-(2,4,5-trifluoro-phenyl)-butan-1-one formate salt] | < 100 nM |
| N[C@@H](CC(=O)N1CC(F)(F)C[C@H]1c1nc(C2CC2)no1)Cc1cc(F)c(F)cc1F [Example 27, (R)-3-Amino-1-[(S)-2-(3-cyclopropyl-[1,2,4]oxadiazol-5-yl)-4,4-difluoro-pyrrolidin-1-yl]-4-(2,4,5-trifluoro-phenyl)-butan-1-one formate salt] | < 100 nM |
| N[C@@H](CC(=O)N1CCC[C@@H]1c1nc(-c2ccccc2)no1)Cc1ccccc1F [Example 28, (R)-3-Amino-4-(2-fluoro-phenyl)-1-[(R)-2-(3-phenyl-[1,2,4]oxadiazol-5-yl)-pyrrolidin-1-yl]-butan-1-one hydrochloride] | 101 to 1000 nM |
| N[C@@H](CC(=O)N1CCC[C@@H]1c1nc(-c2cccc(Cl)c2)no1)Cc1ccccc1F [Example 29, (R)-3-Amino-1-{(R)-2-[3-(3-chloro-phenyl) [1,2,4]oxadiazol-5-yl)-pyrrolidin-1-yl}-4-(2-fluoro-phenyl)-butan-1-one hydrochloride] | 101 to 1000 nM |

| SMILES | IC50 |
| --- | --- |
| N[C@@H](CC(=O)N1CCC[C@@H]1c1nc(-c2cccc(F)c2)no1)Cc1ccccc1F [Example 30, (R)-3-Amino-1-{(R)-2-[3-(3-fluoro-phenyl) [1,2,4]oxadiazol-5-yl)-pyrrolidin-1-yl}-4-(2-fluoro-phenyl)-butan-1-one hydrochloride] | 101 to 1000 nM |
| CS(=O)(=O)c1ccc(-c2noc([C@H]3CCCN3C(=O)C[C@H](N)Cc3ccccc3F)n2)cc1 [Example 31, (R)-3-Amino-4-(2-fluoro-phenyl)-1-{(R)-2-[3-(4-methanesulphonyl-phenyl) [1,2,4]oxadiazol-5-yl]-pyrrolidin-1-yl}-butan-1-one hydrochloride] | < 100 nM |
| N[C@@H](CC(=O)N1CCC[C@@H]1c1nc(-c2ccccn2)no1)Cc1ccccc1F [Example 32, (R)-3-Amino-4-(2-fluoro-phenyl)-1-[(R)-2-(3-pyridin-2-yl-[1,2,4]oxadiazol-5-yl)pyrrolidin-1-yl]-butan-1-one hydrochloride] | 101 to 1000 nM |
| N[C@@H](CC(=O)N1CCC[C@H]1c1noc(-c2ccc(F)cn2)n1)Cc1cc(F)c(F)cc1F [Example 36, (R)-3-Amino-1-{(S)-2-[5-(5-fluoro-pyridin-2-yl)-[1,2,4]oxadiazol-3-yl]-pyrrolidin-1-yl}-4-(2,4,5-trifluoro-phenyl)-butan-1-one formate salt] | < 100 nM |
| N[C@@H](CC(=O)N1CCC[C@H]1c1nc2cc(Cl)ccc2[nH]1)Cc1ccccc1F [Example 40, (R)-3-Amino-1-[(S)-2-(5-chloro-1H-benzoimidazol-2-yl)-pyrrolidin-1-yl]-4-(2-fluorophenyl)-butan-1-one trifluoroacetic acid salt] | < 100 nM |
| N[C@@H](CC(=O)N1CCC[C@H]1c1ncc(-c2ccccc2)[nH]1)Cc1ccccc1F [Example 41, formate salt] | 101 to 1000 nM |
| N[C@@H](CC(=O)N1CCC[C@H]1c1cn(-c2ccccc2)nn1)Cc1ccccc1F [Example 42, formate salt] | 101 to 1000 nM |
| N[C@@H](CC(=O)N1CCC[C@H]1c1ncn(-c2ccccc2)n1)Cc1ccccc1F [Example 43, formate salt] | < 100 nM |
| N[C@@H](CC(=O)N1CCC[C@H]1c1nnc(-c2ccccc2)[nH]1)Cc1ccccc1F [Example 44, formate salt] | 101 to 1000 nM |
| N[C@@H](CC(=O)N1CCC[C@H]1c1nc(-c2ccccc2)co1)Cc1ccccc1F [Example 45, formate salt] | < 100 nM |
| N[C@@H](CC(=O)N1CCC[C@H]1c1nnc(-c2ccccc2)o1)Cc1ccccc1F [Example 46, formate salt] | 101 to 1000 nM |
| N[C@@H](CC(=O)N1CCC[C@H]1c1ccn(-c2ccccc2)n1)Cc1ccccc1F [Example 47, formate salt] | 101 to 1000 nM |
| CC(C)(C)n1cnc([C@@H]2CCCN2C(=O)C[C@H](N)Cc2cc(F)c(F)cc2F)n1 [Example 48] | < 100 nM |
| CC(C)(C)c1noc([C@@H]2CCN2C(=O)C[C@H](N)Cc2cc(F)c(F)cc2F)n1 [Example 49, (R)-3-Amino-1-[(S)-2-(3-tert-butyl-[1,2,4]oxadiazol-5-yl)-azetidin-1-yl]-4-(2,4,5-trifluorophenyl)-butan-1-one formate salt] | < 100 nM |
| N[C@@H](CC(=O)N1CC(N2CCC(C(F)(F)F)CC2)C1)Cc1ccccc1F [Example 50, (3R)-3-Amino-4-(2-fluoro-phenyl)-1-[3-(4-trifluoromethyl-piperidin-1-yl)-azetidin-1-yl]-butan-1-one] | 1000 to 2000 nM |
| N[C@@H](CC(=O)N1CC(N2CCN(c3ccccn3)CC2)C1)Cc1ccccc1F [Example 51, (3R)-3-Amino-4-(2-fluoro-phenyl)-1-[3-(4-pyridin-2-yl-piperazin-1-yl)-azetidin-1-yl]-butan-1-one] | 1000 to 2000 nM |
